Reference: patent publication US20150072391A1, “ETHANOL PRODUCTION IN ENGINEERED YEAST” (Massachusetts Institute of Technology, priority 2013, published 2015)
Read-outs that look alike come from different tables or passages of the source.

Tests used:
yeast = test: Fermentation in synthetic media with cellulosic hydrolysate inhibitors; type: cell-based
Experimental: To determine whether elevated K^+ and pH can overcome the toxicity in acid hydrolysates of cellulosic biomass, fermentation experiments were performed using synthetic lab media supplemented with the known major inhibitors (e.g., acetic acid, furfural and hydroxymethylfurfural (HMF)).
All concentrations were then increased by a factor of four to 120 mM (FIG. 23B), far above what has been reported in any hydrolysate. […] Raising K^+ and pH then boosted production by another 54%.

Strain BY4743 = test: Intracellular pH by ratiometric pHluorin after ethanol shock; type: cell-based, Saccharomyces cerevisiae; conditions: for counteraction of the ethanol-mediated pH drop: supplementation of medium
Experimental: Strain BY4743 (WT) was transformed with p416TEF-pHluorin and grown overnight in 1×YSC-URA containing 200 g/L glucose and any indicated supplements. Equal amounts of yeast biomass were washed and transferred into respective fresh medium containing the indicated concentrations of ethanol, incubated at room temperature for 30 min, and measured for fluorescence emission. The ratio of intensities emitted from excitation at 395 nm and 475 nm ([…]) is directly proportional to pH.
To assess pHi, fluorescence intensities from strains carrying a centromeric plasmid expressing ratiometric pHluorin (LAMy178) or empty vector (LAMy96) were measured in a Tecan Safire^2™ microplate reader using excitation wavelengths of 395 nm and 475 nm, and common emission wavelength of 508 nm. Samples, all normalized for cell density, of 140 μL were aliquoted in duplicate to a 96-well black-walled, clear-bottom plate (Costar #3631), and the readings of the replicates averaged. Autofluorescence was removed by subtracting measurements of LAMy96 from LAMy178, both treated under identical conditions. The ratio of the intensities emitted by excitation at 395 nm to that by excitation at 475 nm is directly proportional to pHi; ratios in the 0.5-1.2 range roughly correspond to pH values of ˜5.5-7 (Orij, R., et al. Microbiology (Reading, Engl) 155, 268-278 (2009)).

strain FY4/5 (S288C) = type: cell-based, Saccharomyces cerevisiae
[1] = test system: laboratory strain (S288C); type: cell-based, Saccharomyces cerevisiae; conditions: for effect on ethanol output among additives screened: additives to 1×YSC, 300 g/L glucose (FIG. 7)
Experimental: (§1) To explore how ionic composition of the culture medium affects ethanol performance, chemically defined conditions were necessary which precluded, in some instances, the use of rich formulas such as yeast extract-peptone-dextrose (YEPD) medium or those containing corn steep liquor. […] After the addition of a carbon source and any ionic supplements, all medium were adjusted to pH 3.8 (i.e., the equilibrium pH from the addition of 50 mM K—Pi to 1×YSC), if necessary, using KOH, typically requiring <400 μM. Cultures were incubated at 30° C.: flask cultures (>25 mL) were agitated on a platform shaker at 200 RPM and smaller cultures in glass tubes on a roller drum at the maximum rotational setting.
(§2) Pre-fermentation cultures were grown until saturation and their cell densities determined by absorbance at 600 nm of an appropriate dilution made using fresh medium. Equalized quantities of biomass (e.g., ≧200 OD600 units) were harvested by centrifugation and re-suspended in ˜10 mL of fermentation medium to yield a cell density of OD600≧20. In addition to the target high sugar concentration (e.g., 300 g/L glucose), the fermentation medium optionally contained the supplements under study (e.g., 50 mM K—Pi) and were the first time cells were exposed to modified ionic conditions.
(§3) Fermentations were conducted micro-aerobically: tube-based cultures had at least an equal volume of headspace and were capped snugly with snap-on plastic tops but not sealed with Parafilm. Samples were taken every ˜24 h over the course of 1-4 d; for simplicity, however, several figures display bar graphs of steady state or near steady state ethanol titers (e.g., FIGS. 5A-D). Typically, 16-20 μL were removed and diluted appropriately for measurement of cell density at OD600, another 20 μL for quantification of cell viability by methylene blue staining (see below), and a final 0.5 mL pelleted and the supernatant saved for determination of ethanol concentration.
Ethanol concentrations were determined using one of the following two methods; for consistency, however, all samples deriving from a single experiment were assayed exclusively using one method. […] Absorbances of NADH at 340 nm were blanked against a reaction with ddH2O, measured using an Ultrospec 2100 pro UV/Visible spectrophotometer (GE Healthcare Life Sciences), and normalized against the absorbance of the control solution (“bottle 4”) to determine ethanol concentrations.
To determine final concentrations, peak areas auto-determined by the Agilent Chemstation for LC software were interpolated off a standard curve consisting of 0-20% ethanol (by volume) prepared in 1×YSC medium.
Images were recorded using a SPOT Insight 2 MP Firewire color camera with SPOT 5.0 software, and analyzed offline.
For each image, the number of unstained (clear) cells was quantified along with the total number (clear+stained) of cells, and the fraction of live cells determined by taking the quotient of the two. Fractions of viable cells were determined for 3-4 images per sample and used to calculate error statistics for the technical replicates (e.g., FIGS. 2A, 2B, 8A). Mean OD600 absorbance values were multiplied by their respective mean viable fractions to arrive at the underlying viable population in OD600 units (e.g., FIG. 1B, 3B).
To calculate ethanol productivities per viable cell, rates of increase in ethanol titer were normalized by the average viable OD600 during the corresponding period (FIG. 1A): […]

S288C = conditions: YP diluted to 20%
Experimental: as §1

[2] = test system: S288C, PE-2, Ethanol Red, Kyokai 7; test: Glucose fermentation of laboratory and industrial yeast strains; type: cell-based, Saccharomyces cerevisiae; conditions: K—Pi supplementation, laboratory prototroph and auxotroph and industrial strains
Experimental: as §2, §3

H131-A3-AL^CS = test: High cell density xylose fermentation; type: cell-based, Saccharomyces cerevisiae; conditions: K—Pi supplementation, 100 g/L xylose
Experimental: Furthermore, altering the medium to augment membrane gradients enhanced ethanol production not only from glucose, but from xylose, an abundant carbon source from lignocellulosic feedstocks that cannot be metabolized by unmodified S. cerevisiae^23. Therefore K—Pi supplementation was tested on H131-A3-AL^CS, a strain incorporating the Piromyces XYLA isomerase and P. stipitis XYL3 xylulokinase, and optimized to consume xylose^24. In high cell density, high xylose-only (100 g/L) fermentations, increases of ˜70% in both ethanol titer and productivity were found (FIG. 5D). […]
To build yeast biomass and osmotically adapt cells for high cell density and high sugar fermentations, starter cultures consisting of the unmodified base medium (i.e., 1×YSC or YSC-URA) and ˜0.3× the target fermentation sugar concentration (e.g., 100 g/L glucose) were grown until saturation, pelleted by centrifugation, and the entire cell mass used to inoculate a second “pre-fermentation” culture containing ˜0.5-0.6× the target sugar concentration (e.g., 150 g/L glucose). Pre-fermentation cultures were grown until saturation and their cell densities determined by absorbance at 600 nm of an appropriate dilution made using fresh medium. Equalized quantities of biomass (e.g., ≧200 OD600 units) were harvested by centrifugation and re-suspended in ˜10 mL of fermentation medium to yield a cell density of OD600≧20. […]

[3] = cited from earlier work; for Specific activity: on PNPC
[4] = low viscosity CMC; cited from earlier work

For O=Cc1ccc(CO)o1 [HMF, hydroxymethylfurfural], the “inhibition compared to the unsupplemented control” value (yeast; 120 mM) was 10%.

With [Cl-].[K+] [KCl, potassium chloride] the “counteraction of the ethanol-mediated pH drop” value (Strain BY4743) was “not capable of counteracting”, the “viability after isobutanol shock” value (strain FY4/5 (S288C); 5 g/L glucose, additional KCl alone) was “insufficient to improve viability” and the “effect on ethanol output among additives screened” value [1] was “largest enhancement within the panel of chloride salts tested”. The “effect on ethanol output and viability during fermentation” value ([1]; varied amount of KCl (10-75 mM) in synthetic medium) was “dose-dependent improvements”.

With [K+] [K^+] the “enhancement of ethanol output” value (S288C; addition of K+, pH 6, SD) was 17±2.5%, the “restoration of ethanol titers” value (S288C; pH 3.7, addition of K+) was 47±2.5% and the ethanol titer (S288C; pH 3.7, addition of K+, SD) was 109 ± 1.8 g/L. For the same molecule, the resistance to isobutanol (strain FY4/5 (S288C); 5 g/L glucose, K+ supplementation combined with higher pH (5.3 vs. 3.9)) was “capable of enhancing resistance to isobutanol”.

In the case of O=P([O-])(O)O.[K+] [K—Pi, potassium phosphate monobasic], the “counteraction of the ethanol-mediated pH drop” value (Strain BY4743) is reported as “not capable of counteracting”, the “ethanol output titers (near the molar conversion limit)” value [2] is reported as ~150 g/L and the “survival after ethanol shock” value (strain FY4/5 (S288C); 10-20% ethanol, 300 g/L glucose, 50 mM K—Pi vs unmodified medium) is reported as “survival was indeed enhanced”. For the same molecule, the “survival after isobutanol shock” value (strain FY4/5 (S288C); steps of isobutanol, 300 g/L glucose, elevated K—Pi) was “reduced rate of survival”, the “viability after isopropanol shock” value (strain FY4/5 (S288C); steps of isopropanol, 300 g/L glucose, K—Pi supplementation) was “viability was similarly enhanced” and the “rise in ethanol output” value ([1]; 50 mM K—Pi added to 1×YSC, 300 g/L glucose, initial OD600 20-30, vs unmodified medium) was > 50%. For the same molecule, the final ethanol titer ([1]; 50 mM K—Pi, 4-day culture, 300 g/L glucose) was ~140 g/L, the “effect on ethanol output among additives screened” value [1] was “largest improvement” and the “specific ethanol productivity (rate normalized by mean live population)” value ([1]; elevated K—Pi vs unmodified medium) was “remained unchanged”. The additional yeast biomass ([1]; high K—Pi vs unmodified medium) was ~25%, the “increase in ethanol productivity” value (H131-A3-AL^CS) was ~70% and the “increase in ethanol titer” value (H131-A3-AL^CS) was ~70%.

With O=P([O-])(O)O.[Na+] [Na—Pi, monosodium phosphate] the “effect on ethanol output among additives screened” value [1] was “improves ethanol titer over NaCl”.

In the case of CCO [ethanol], the “effect on intracellular pH” value (Strain BY4743; shocks of increasing ethanol concentration) is reported as “decreased intracellular pH in a dose-dependent fashion”.

With OCc1ccco1 [furfuryl alcohol] the “tolerance by yeast compared to furfural” value (yeast) was “much better tolerated”.

B1: Cellulomonas fimi cex: CBHI group cellulase expressed in S. cerevisiae (protein, UniProt P07986 42-484, looked up)
Exoglucanase/xylanase: ATTLKEAADGAGRDFGFALDPNRLSEAQYKAIADSEFNLVVAENAMKWDATEPSQNSFSFGAGDRVASYAADTGKELYGHTLVWHSQLPDWAKNLNGSAFESAMVNHVTKVADHFEGKVASWDVVNEAFADGDGPPQDSAFQQKLGNGYIETAFRAARAADPTAKLCINDYNVEGINAKSNSLYDLVKDFKARGVPLDCVGFQSHLIVGQVPGDFRQNLQRFADLGVDVRITELDIRMRTPSDATKLATQAADYKKVVQACMQVTRCQGVTVWGITDKYSWVPDVFPGEGAALVWDASYAKKPAYAAVMEAFGASPTPTPTTPTPTPTTPTPTPTSGPAGCQVLWGVNQWNTGFTANVTVKNTSSAPVDGWTLTFSFPSGQQVTQAWSSTVTQSGSAVTVRNAPWNGSIPAGGTAQFGFNGSHTGTNAAPTAFSLNGTPCTVG
For B1, the “activity measured per L culture broth” value ([3]; PNPC) is given as 8 U/L,, the “activity per dry cell weight” value ([3]; PNPC) is given as ~1.0 U/g DCW (PNPC) and the Specific activity [3] is given as 3 U/mg.

B2: Cellulomonas fimi Exg (cex): CBHI group cellulase expressed in S. cerevisiae (protein, UniProt P07986 42-484, looked up)
Exoglucanase/xylanase: B1 Exoglucanase/xylanase
In the case of B2, the “activity measured per L culture broth” value ([3]; PNPC) is given as 45 U/L (PNPC) and the Specific activity [3] is given as 3.6 (PNPC) U/mg.

B3: Cellulamonas fimi Eng (cenA): endoglucanase expressed in S. cerevisiae (protein, UniProt P07984 32-449, looked up)
Endoglucanase A: APGCRVDYAVTNQWPGGFGANVTITNLGDPVSSWKLDWTYTAGQRIQQLWNGTASTNGGQVSVTSLPWNGSIPTGGTASFGFNGSWAGSNPTPASFSLNGTTCTGTVPTTSPTPTPTPTTPTPTPTPTPTPTPTVTPQPTSGFYVDPTTQGYRAWQAASGTDKALLEKIALTPQAYWVGNWADASHAQAEVADYTGRAVAAGKTPMLVVYAIPGRDCGSHSGGGVSESEYARWVDTVAQGIKGNPIVILEPDALAQLGDCSGQGDRVGFLKYAAKSLTLKGARVYIDAGHAKWLSVDTPVNRLNQVGFEYAVGFALNTSNYQTTADSKAYGQQISQRLGGKKFVIDTSRNGNGSNGEWCNPRGRALGERPVAVNDGSGLDALLWVKLPGESDGACNGGPAAGQWWQEIALEMARNARW
In the case of B3, the “activity measured per L culture broth” value [4] is given as 293 U/L (low viscosity.
